Laboratory results from US20040014772A1, “Compositions and methods for treating glomerular disorders” (priority 2000, published 2004).

Assays:
[1] = tested on: glomerular epithelial cells GEC; test: PAN-induced cytotoxicity to GEC (trypan blue exclusion, LDH release); format: cell-based, rat; conditions: PAN 1.5 mM 48 h; preincubation CM 2 mM, PB 25 μM, RN 1 mM, PIP 0.2 mM, pyruvate 10 mM
Method: Rat GEC (kindly provided by both Dr. Saulo Klahr, Washington University School of Medicine, St. Louis, Mo., and Dr. […], University of Texas Health Science Center, San Antonio, Tex.) were maintained in RPMI-1640 medium supplemented with 10% FBS, 15 mM HEPES, insulin, penicillin, streptomycin and L-glutamine in a humidified atmosphere of 95% air-5% CO2 at 37° C. and fed at intervals of 3 days ([…] et al, 1995, Biochem. Biophys. 318(2):286-294). The cells were maintained in 75 Cm^2 tissue culture flasks and the monolayers were subcultured using 0.05% trypsin-0.53 mM EDTA in Hank's balanced salt solution (HBSS). For the experimental study, the cells were grown in 12-well tissue culture plate until confluence. On the day of experiment, the medium was discarded and the confluent GEC monolayer was washed twice with HBSS. The cells were then incubated with various concentrations of PAN (0, 0.1, 0.5, 1.0, 1.5, and 2.0 mM in HBSS) for different periods of time (0, 6 hours, 1 day, 2 days, 3 days and 4 days) at 37° C. At the end of the incubation, the incubation medium was discarded and the GEC monolayer was harvested by trypsinization with 0.05% trypsin-0.53 mM EDTA for 5 min at 37° C. Isolated cells were suspended in HBSS to give about 10^6 cells/ml. PAN-induced cytotoxicity to GEC was measured by the trypan blue exclusion assay (Baliga et al, 1996, Kidney Intl. 50:1118-1124) and lactate dehydrogenase (LDH) release assay (Baliga et al., 1998, Kidney Intl. 53:394-401.). The latter is the percentage of LDH released into the medium, to total LDH recovered from both medium and cellular fraction. […] After the incubation, the cell monolayers were washed twice with HBSS and then incubated with cytotoxic dose of PAN in HBSS for a period of time necessary to induce consistent cytotoxicity ([…], 48 h, based on the concentration and time course studies) at 37° C. PAN induced cytotoxicity on GEC was measured by trypan blue exclusion assay.

[2] = tested on: CYP; conditions: cited from earlier work
[3] = tested on: CYP2B1; test: CYP2B1 content in GEC exposed to PAN (western blot); format: cell-based, rat; conditions: PAN 1.5 mM for 2 hr at 37° C.; CM 2 mM, PIP 0.2 mM, pyruvate 10 mM
Description: The microsome fraction obtained was subjected to SDS-page electrophoresis in 1 mm slab gels. The separated forms were transferred from gel to a nitrocellulose sheet using a Mini Trans-blot electroblotting unit. The primary antibodies were monoclonal anti-HO-1 (OSA-111, StressGen, Victoria, BC, Canada) and monoclonal anti-CYP2B1 (PM25, Oxford Biomedical Research, Oxford, Mich., USA). Subsequent to primary and secondary antibody (peroxidase-labeled) treatment, the blots were visualized by enhanced chemiluminescence method.

[4] = Weight loss/gain of rats before and after treatments (PAN-induced nephrotic syndrome); format: in vivo, rat; conditions: rats, day 7; PAN 7.5 mg/100 g BW iv; CM 120 mg/kg ip twice a day; PB 400 mg/kg ip every other day; means ± SE
Method: Two different general CYP inhibitors were used, cimetidine (CM) and piperonyl butoxide (PB). Cimetidine has imidazole and cyano groups that inhibit CYP by interacting with the heme moiety. […] To determine the effect of the CYP inhibitors in PAN- induced nephrotic syndrome, CM (120 mg/kg BW) was administered intraperitoneal 1 h prior to PAN injection and then twice a day. Piperonyl butoxide (PB) which yields a metabolite that binds to the heme moiety of CYP, was given intraperitoneal (400 mg/kg BW) 4h before PAN injection and then every other day.
Also, the CYP2B1 inhibitor piperine (PIP), a methylenedioxyphenyl compound found in black and red pepper was used. PIP is believed to inhibit CYP2B1 by forming an inhibitory complex therewith. PIP was administered at a dose of 85 mg/kg of body weight (BW) by an intraperitoneal injection 16 hours prior to PAN injection and then once a day.

| SMILES | PAN-induced cytotoxicity to GEC [1] | inhibition of CYP [2] | CYP2B1 content in GEC [3] | Body weight After Treatment (day7) [4] |
| --- | --- | --- | --- | --- |
| CNC(=C[N+](=O)[O-])NCCSCc1ccc(CN(C)C)o1 [RN, ranitidine] | did not show any protection | either weakly or not at all | not |  |
| CC(=O)C(=O)O [pyruvate] | prevent |  | preserve |  |
| CCCCOCCOCCOCc1cc2c(cc1CCC)OCO2 [PB, piperonyl butoxide] |  |  |  | 253 ± 4 g |
| O=C(/C=C/C=C/c1ccc2c(c1)OCO2)N1CCCCC1 [PIP, piperine] | markedly reduced |  | preserved |  |
